Experiments:
Lewis lung carcinoma = test: growth inhibition / cytotoxicity in vitro; assay type: cell-based; conditions: 10 μg/ml
Text: (§1) As set forth in Table 7 below, all malignant tumors evaluated in tissue culture, endothelial cells and vascular smooth muscle cells were sensitive to inhibition. Thus, compound 1436 has application in the control of growth factor dependent proliferation of many types of tissue.

[1] = system: chick embryo vitelline capillaries; test: chick embryo vitelline capillary regression assay; assay type: in vivo; design: key to vitelline capillary regression: +: Vascular reactivity; 0: No vascular reactivity; +/-: Equivocal reactivity; conditions: for vitelline capillary regression: 60 minutes
Experimental: Using the chick embryo vitelline capillaries assay, compounds were tested for their ability to induce capillary regression. Each compound was applied in 0.1 ml of 15% Ficol 400 and PBS onto the embryo, and vascular regression was assessed after 60 minutes.
The 3-day chick embryo consists of an embryonic disc from which numerous vessels emerge and return, forming a "figure 8"-shaped structure--the embryo in the center with vascular loops extending outward over both poles. […] Following a lag period of around 15 minutes, the constriction of continuity between capillary and secondary vessels, generally on the "venous" side, was observed. Continued pulsatile blood flow progressed, resulting in a "swelling" of the blind tube, followed by a pinching off of the remaining connection and formation of an enclosed vascular sac resembling a "blood island." This process progressed until only the largest vessels remained intact.

[2] = growth and weight gain in growing mice; assay type: in vivo, C57B mice
Experimental: Animals were dosed QTD (i.p.) starting on Day 1. […] Animals receiving 5 mg/kg QTD experienced about a 50% reduction in growth, compared to untreated controls, while animals receiving 1 mg/kg QTD were affected by about 10%. […] They appeared very much like hypophysectamized animals might appear.

[3] = system: Human colon carcinoma HT29; test: growth inhibition in vitro (Baker et al.); assay type: cell-based; conditions: 10 μg/ml
Text: as §1

[4] = system: Human colon carcinoma SW948; test: growth inhibition in vitro (Baker et al.); assay type: cell-based; conditions: 10 μg/ml
Text: as §1

Human melanoma WM 1617 = test: growth inhibition in vitro (Baker et al.); assay type: cell-based; conditions: 10 μg/ml
Text: as §1

[5] = system: Human coronary artery smooth muscle cells; test: growth inhibition in vitro (Baker et al.); assay type: cell-based; conditions: 10 μg/ml
Text: as §1

[6] = system: human umbilical venous endothelial cells; test: growth inhibition in vitro (Baker et al.); assay type: cell-based; conditions: 10 μg/ml
Text: as §1

[7] = system: bovine pulmonary endothelial cells; test: growth inhibition in vitro (Baker et al.); assay type: cell-based; conditions: 10 μg/ml
Text: as §1

Murine L1210 leukemia = test: growth inhibition in vitro (Baker et al.); assay type: cell-based; conditions: 10 μg/ml
Text: as §1

[8] = system: Human microvascular endothelial cells; test: growth inhibition in vitro (Baker et al.); assay type: cell-based; conditions: 10 μg/ml
Text: as §1

fasting blood glucose = fasting blood glucose in mice; assay type: in vivo, Male CD-1 mice; conditions: intravenous
Experimental: To study the effect of steroid administrator or the NHE responsible for secretion of insulin, several of the aminosterols from shark liver were administered to fasting mice. Male CD-1 mice were assigned to one of four treatment groups. Whole blood glucose was tested using glucometer (Lifescan Glucometer II and One Touch test strips). Statistical analysis was via one-way analysis of variance (ANOVA) followed by subsequent Bonferonni's t-test.

rabbit NHE3 = rabbit NHE3 (Oryctolagus cuniculus, UniProt P26432); conditions: 10 μg/ml; acid preloaded by 40 mM NH4Cl
rabbit NHE3, sequence (P26432 30-832): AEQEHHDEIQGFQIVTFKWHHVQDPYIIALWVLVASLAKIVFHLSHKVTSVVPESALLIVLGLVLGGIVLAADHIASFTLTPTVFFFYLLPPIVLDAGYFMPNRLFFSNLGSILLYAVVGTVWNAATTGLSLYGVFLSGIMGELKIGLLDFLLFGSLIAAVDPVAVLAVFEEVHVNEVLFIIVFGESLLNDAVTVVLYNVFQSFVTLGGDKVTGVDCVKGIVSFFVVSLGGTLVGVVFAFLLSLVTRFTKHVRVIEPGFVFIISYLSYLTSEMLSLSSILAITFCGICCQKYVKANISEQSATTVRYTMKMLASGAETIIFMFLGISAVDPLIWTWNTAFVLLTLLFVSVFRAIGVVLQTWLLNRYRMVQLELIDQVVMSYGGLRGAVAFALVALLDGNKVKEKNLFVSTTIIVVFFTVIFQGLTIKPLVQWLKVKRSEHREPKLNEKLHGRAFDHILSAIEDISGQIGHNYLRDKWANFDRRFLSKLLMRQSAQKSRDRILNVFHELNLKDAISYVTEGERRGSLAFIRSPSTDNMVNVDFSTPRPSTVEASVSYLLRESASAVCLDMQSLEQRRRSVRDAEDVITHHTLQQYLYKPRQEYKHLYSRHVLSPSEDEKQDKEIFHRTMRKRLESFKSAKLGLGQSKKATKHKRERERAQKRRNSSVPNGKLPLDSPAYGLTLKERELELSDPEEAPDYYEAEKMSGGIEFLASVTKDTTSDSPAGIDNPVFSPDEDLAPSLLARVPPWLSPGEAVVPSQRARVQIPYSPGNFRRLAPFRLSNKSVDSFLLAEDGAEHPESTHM
Experimental: Internal pH was measured either following acid loading or in the absence of an acid-loading challenge, with the results shown in FIGS. 1A and 1B.
Specifically, PS120 fibroblasts transfected with rabbit NHE3 were grown in supplemented Dulbecco's-modified Eagle's medium as described by Levine et al., J. Biol. Chem. 268, 1993, 25527-25535. […] For cells not acid-preloaded, the actual internal pH value was monitored as a function of time following addition of squalamine, with the results depicted in FIG. 1B.
PS120 fibroblasts transfected with rabbit NHE3 were grown and acid preloaded by exposure to 40 mM NH4 Cl as described above in conjunction with FIGS. 1A and 1B. Internal cellular pH changes expressed as the rate of pH recovery as a function of restored extracellular sodium ion concentration following exposure to 10 μg/ml of the compound were assayed with the fluorescent dye BCECF-AM as described above.

[9] = system: stage 59-60 Xenopus tadpoles
Murine B16 melanoma = test: growth inhibition in vitro; assay type: cell-based; conditions: 10 μg/ml
Text: as §1

[10] = system: heart of a juvenile Xenopus laevis frog; test: ex vivo beating of isolated frog heart; conditions: 10 μg/ml; Krebs-Ringer with adrenaline 50 μg/ml; about one hour without compound
Experimental: To determine if compound 1436 has such utility, the following experiment was performed. The heart of a juvenile Xenopus laevis frog was dissected from the living animal. The heart was placed into a Petri dish containing Krebs-Ringer buffer with adrenaline 50 μg/ml, and examined with the naked eye. At room temperature, the heart continued beating in a coordinated fashion (atrial beat followed by ventricular beat) for about one hour. In the presence of 10 μg/ml of compound 1436, spontaneous beating persisted up to 24 hours.

[11] = system: human coronary artery smooth muscle; test: proliferation of human coronary artery smooth muscle in vitro; assay type: cell-based
Text: Aminosterols of the invention may also have utility in inhibiting the growth factor mediated proliferation of smooth muscle within the artery. Following coronary angioplasty, reocclusion commonly occurs, secondary to reparative proliferation of the vascular smooth muscle within the wall of the surgically manipulated blood vessel. This process generally takes place over the course of 7-10 days. To evaluate whether an agent could prevent the growth factor mediated proliferation of smooth muscle within the artery, compound 1436 was evaluated in vitro for its effect on the proliferation of human coronary artery smooth muscle. Results for compound 1436 are shown in FIG. 13, and those for squalamine are shown in FIG. 14, with FIG. 15 being a composite logarithmic plot.

B16 melanoma = B16 melanoma growth in C57B mice; assay type: in vivo, mouse
Experimental: The growth of B16 melanoma in C57B mice is dependent upon neovascularization.
Using the growth of B16 melanoma cells in C57B mice, a recognized model for the evaluation of inhibitors of angiogenesis on the growth of cancers, the effects of subcutaneous, intraperitoneal and oral administration of squalamine were evaluated.
Based on the idea that tumor growth involves both the clonal expansion of a malignant cell along with the development of a supporting vascular supply, a combination of compound 1436 with squalamine was tested to determine whether it would achieve a synergistic effect on solid tumor growth. This concept was evaluated in the B16 melanoma model.
Animals were implanted with B16 melanoma followed by treatment with compound 1436 or 1256 administered in a combined schedule or separately. […] Thus, a combination of these two compounds achieves a therapeutic benefit in tumors dependent on neovascularization that may prevent metastatic spread.

[12] = system: Human ovarian carcinoma SKOV3; test: growth inhibition in vitro (Baker et al.); assay type: cell-based; conditions: 10 μg/ml
Experimental: as §1
Using the assay described above, the anticancer effects of compound 1437 against several cancer lines was assessed.

[13] = system: PHA-stimulated human lymphocytes; test: inhibition of mitogen (PHA)-stimulated growth of human T-cells; assay type: cell-based; conditions: Homo sapiens, Lymphocyte, read-out: inhibition of PHA-stimulated human lymphocytes (% control)
Text: Results are tabulated below.

arterial pressure = arterial pressure in the rat after i.v. administration; assay type: in vivo
Experimental: A 200-g rat was catheterized in the right carotid artery, and the compound was introduced over a ten-second period to a total dosage of 5 mg/kg. Within 30 seconds, the mean arterial pressure had fallen from about 100 mm Hg to about 70 mm Hg, with a marked reduction in pulse pressure from about 40 mm to about 10 mm. […] If cardiac output was basically unaffected, reduction in blood pressure would have resulted principally from a reduction in system resistance.
At that time, 40 μg of noradrenaline was introduced.

[14] = system: L1210 lymphoblastic leukemia; test: mouse model of L1210 leukemia; assay type: in vivo, C57B mice

CC(C)[C@@H](CC[C@@H](C)[C@H]1CC[C@H]2[C@@H]3[C@H](O)C[C@H]4C[C@@H](NCCCNCCCCNCCCN)CC[C@]4(C)[C@H]3CC[C@]12C)OS(=O)(=O)O [Compound 1436]
cancer cells inhibited in vitro (Lewis lung carcinoma): INHIBITED
vitelline capillary regression ([1]; 0.001 μg applied): +/-
vitelline capillary regression ([1]; 0.01 μg applied): +
vitelline capillary regression ([1]; 0.1 μg applied): +
vitelline capillary regression ([1]; 1 μg applied): +
vitelline capillary regression ([1]; 10 μg applied): +
effect on chick embryo vitelline capillaries (in words) ([1]; in vivo): causes vitelline capillary regression with about the same potency as squalamine
reduction in growth of mice ([2]; 1 mg/kg QTD i.p.): about 10%
suppression of growth of mice ([2]; 10 mg/kg QTD i.p., about 1 month): growth was almost completely inhibited
health of treated animals ([2]; mouse, in vivo): all were active, normally proportioned, not-cachectic, and in excellent apparent clinical health
cancer cells inhibited in vitro [3]: INHIBITED
cancer cells inhibited in vitro [4]: INHIBITED
cancer cells inhibited in vitro (Human melanoma WM 1617): INHIBITED
non-transformed cells inhibited in vitro [5]: INHIBITED
non-transformed cells inhibited in vitro [6]: INHIBITED
non-transformed cells inhibited in vitro [7]: INHIBITED
cancer cells inhibited in vitro (Murine L1210 leukemia): INHIBITED
non-transformed cells inhibited in vitro [8]: INHIBITED
hyperglycemia (fasting blood glucose): caused hyperglycemia in mice
inhibition of rabbit NHE3 (rabbit NHE3): found to inhibit rabbit NHE3
time to death of tadpole ([9]; in vivo): about 2 hours
tadpole tail capillary occlusion ([9]; squalamine at 10 μg/ml): common vascular occlusive effect
cancer cells inhibited in vitro (Murine B16 melanoma): INHIBITED
persistence of spontaneous beating of isolated heart [10]: up to 24 hours
suppression of growth (in words) ([11]; FIG. 15): suppress in vitro the growth of human coronary artery smooth muscle
viability ([11]; about 11 μg/ml): without loss of viability
impact on tumor volume (B16 melanoma; compound 1436 alone 10 mg/kg/every 3 days): no significant impact on tumor volume
tumor growth, single agent (B16 melanoma; squalamine 15 mg/kg/day, compound 1436 alone in a tolerable schedule): Neither administration of squalamine at 15 mg/kg/day nor compound 1436 alone in a tolerable schedule could achieve this effect
cancer cells inhibited in vitro [12]: INHIBITED
inhibition at 1 µg/mL ([13]; 1 μg/ml): 20%
inhibition at 5 µg/mL ([13]; 5 μg/ml): 50%
inhibition at 10 µg/mL ([13]; 10 μg/ml): 80%
reversibility of effect (arterial pressure; 40 μg noradrenaline at 30 minutes): readily reversible
duration of effect on arterial pressure (arterial pressure; 5 mg/kg i.v.): followed for 30 minutes, without significant change
heart rate (arterial pressure; 5 mg/kg i.v.): no significant increase in heart rate was observed
time to fall in arterial pressure (arterial pressure; 5 mg/kg i.v.): ≤ 30 s
pulse pressure after dosing (arterial pressure; 5 mg/kg i.v., from about 40 mm): about 10 mm
mean arterial pressure after dosing (arterial pressure; 5 mg/kg i.v., from about 100 mm Hg): about 70 mm Hg
survival ([14]; highest dose (10 mg/kg every 3 days i.p.)): significant prolongation of life
granulocyte count ([14]; mouse, in vivo): robust granulocyte count
hematocrit ([14]; mouse, in vivo): near normal hematocrit
